{
  "source": "patent US20170246235A1",
  "about": "“GREEN TEA COMPOSITIONS” (priority 2014, published 2017)",
  "key": {"[1]": {"conditions": "after oral green tea extract; cited from earlier work"}, "P. falciparum": {"system": "P. falciparum", "assay": "Parasite growth measured by radiolabeled hypoxanthine uptake", "format": "cell-based, Plasmodium falciparum", "experimental": "Growth was measured by hypoxanthine uptake using radiolabeled hypoxanthine. […] ([…]) indicates rep. […] Graphpad Prism 6 software was used to analyse the data using the equation for log(inhibitor) vs. normalized response (variable slope).\nThis example was carried out to determine the parasiticidal efficacy of Phytofare® green tea extract containing catechins. The extract was resuspended in water to give a stock concentration of 58 mg/ml. Parasite growth was measured by hypoxanthine uptake using radiolabeled hypoxanthine as described (Slavic, K. et al., Mol. Biochem. Parasitol. 168:113-116, 2009). […] Each experiment included five technical replicates, and a total of three biological replicates were carried out.\nThe assay was repeated to obtain the IC50 values for pure caffeine, and for Epigallocatechin Gallate (EGCG) which is present in the extract, obtained from a different source. The concentration ranges used were 352.44 μM to 0.69 μM for caffeine, and 371.01 μM to 0.73 μM for EGCG. These concentrations reflect the molar concentrations present at the highest concentration (μg/ml) of extract used."}, "[2]": {"conditions": "meta-analysis of 97 studies, Manach et al. (2005); cited from earlier work"}, "[3]": {"conditions": "cited from earlier work"}, "breast cancer cells": {"system": "breast cancer cells", "conditions": "cited from earlier work"}, "MMP2": {"system": "MMP2", "conditions": "cited from earlier work"}, "α-amylase": {"system": "α-amylase", "conditions": "cited from earlier work; for inhibition of α-amylase: at a concentration of 20 μM"}, "HIV-1 integrase": {"biological_target": "T1, HIV-1 integrase (Human immunodeficiency virus type 1 group M subtype B, UniProt P04585)", "T1 construct": "Full-length recombinant HIV-1 integrase protein (200 nM, purified from bacteria); literature Express Biotech International; host or cells: bacteria", "conditions": "cited from earlier work"}, "MMP9": {"system": "MMP9", "conditions": "cited from earlier work"}},
  "note": "pIC50: −log10 of the molar value. Where two headings read alike, the source gives them in different places.",
  "data": [
    {"molecule": "Oc1cc(O)c2c(c1)O[C@H](c1cc(O)c(O)c(O)c1)[C@@H](O)C2", "note": "[gallocatechin]", "values": [
      {"measurement": "area-under-curve, retina", "setting": "[1]", "value": "207,000 pmol×h/g"},
      {"measurement": "highest concentration in the retina", "setting": "[1]", "value": "22729.4 ± 4229.4", "unit": "pmol/g"}
    ]},
    {"molecule": "Cn1c(=O)c2c(ncn2C)n(C)c1=O", "note": "[caffeine]", "values": [
      {"measurement": "inhibition by caffeine alone", "setting": "P. falciparum; even at 352.44 μM", "value": "no inhibition"},
      {"measurement": "IC50, rep. 1", "setting": "P. falciparum; independent IC50 assay rep. 1", "value": "no calculable IC50 values"},
      {"measurement": "IC50, rep. 2", "setting": "P. falciparum; independent IC50 assay rep. 2", "value": "no calculable IC50 values"},
      {"measurement": "IC50, rep. 3", "setting": "P. falciparum; independent IC50 assay rep. 3", "value": "no calculable IC50 values"}
    ]},
    {"molecule": "Oc1cc(O)c2c(c1)O[C@H](c1ccc(O)c(O)c1)[C@H](O)C2", "note": "[epicatechin]", "values": [
      {"measurement": "elimination half-life", "setting": "[2]", "value": "2.5 ± 0.4", "unit": "h"}
    ]},
    {"molecule": "epigallocatechin-3-gallate [EGCG]", "values": [
      {"measurement": "cellular toxicity to the corneal epithelium", "setting": "[3]; 0.01% or 0.1% EGCG", "value": "No cellular toxicity"},
      {"measurement": "decrease in corneal fluorescein staining compared with the vehicle", "setting": "[3]; topical 0.1% EGCG", "value": 24.6, "unit": "%"},
      {"measurement": "decrease in corneal fluorescein staining compared with untreated controls", "setting": "[3]; topical 0.1% EGCG", "value": 41.9, "unit": "%"},
      {"measurement": "decrease in number of CD11b+ cells, central cornea, compared with the vehicle", "setting": "[3]; topical 0.1% EGCG", "value": 26.1, "unit": "%"},
      {"measurement": "decrease in number of CD11b+ cells, peripheral cornea, compared with the vehicle", "setting": "[3]; topical 0.1% EGCG", "value": 23.3, "unit": "%"},
      {"measurement": "inhibition of invasion by breast cancer cells", "setting": "breast cancer cells; 20 μg/ml in the media", "value": "about 26%"},
      {"measurement": "inhibition of invasion by breast cancer cells", "setting": "breast cancer cells; 50 μg/ml in the media", "value": "~100", "unit": "%"},
      {"measurement": "elimination half-life", "setting": "[2]", "value": "3.5 ± 0.3", "unit": "h"},
      {"measurement": "production of MMP2", "setting": "MMP2; 20 ug/ml in the media", "value": "reduced"},
      {"measurement": "activity of MMP2", "setting": "MMP2; 50 μg/ml and 100 ug/ml", "value": "completely inhibited"},
      {"measurement": "effect on Km of α-amylase", "setting": "α-amylase; 50 μM EGCG, p=0.1", "value": "did not significantly affect"},
      {"measurement": "Vmax of α-amylase", "setting": "α-amylase; 50 μM EGCG, reduced from 323.3", "value": 206.1, "unit": "product/min/mg protein"},
      {"measurement": "inhibition of α-amylase", "setting": "α-amylase", "value": 34, "unit": "%"},
      {"measurement": "IC50 for HIV-1 integrase", "setting": "HIV-1 integrase", "value": "slightly higher than Raltegravir"},
      {"measurement": "pIC50", "setting": "P. falciparum; ± S.E.M., read-out: IC50, means of the three independent experiments", "value": 4.09},
      {"measurement": "production of MMP9", "setting": "MMP9; 20 ug/ml in the media", "value": "completely inhibited"},
      {"measurement": "activity of MMP9", "setting": "MMP9; 50 μg/ml and 100 ug/ml", "value": "completely inhibited"}
    ]},
    {"molecule": "Oc1cc(O)c2c(c1)O[C@H](c1cc(O)c(O)c(O)c1)[C@H](O)C2", "note": "[EGC, epi-gallocatechin]", "values": [
      {"measurement": "elimination half-life", "setting": "[2]", "value": "2.3 ± 0.2", "unit": "h"},
      {"measurement": "area-under-curve, aqueous humor", "setting": "[1]", "value": "2035.0 ± 531.7", "unit": "nM·h"},
      {"measurement": "concentration in aqueous humor", "setting": "[1]", "value": "602.9 ± 116.7", "unit": "nM"},
      {"measurement": "inhibition of α-amylase", "setting": "α-amylase", "value": 13, "unit": "%"}
    ]}
  ]
}
